The results in this text go back to patent US20230226135A9, “ACETYLCHOLINE MODULATION OF IMMUNE FUNCTION” (BCell Solutions, Inc., priority 2019, published 2023).

Entries after “also recorded” stand apart in the source; their conditions may differ.

Series [1] relates to blood brain barrier (BBB). The experiment in a line: Intravital microscopy of BBB permeability and lymphocyte adhering/rolling in pial venules. Format: in vivo, C57 BL/6J mice. From the text:
Whether intranasal infection with Streptococcus pyogenes would induce blood-brain barrier permeability in C57 BL/6J mice by a TLR-dependent mechanism was examined. Immediately following craniotomy, mice were placed under an intravital microscope to study vascular permeability and leukocytes. Permeability of cerebral blood vessels was observed using FITC-dextran fluorescent dye and, tracing of leukocytes is observed by labeling such cells with Rhodamine-6G. Intranasal infection with Streptococcus pyogenes (gram positive) increased BBB permeability (FIG. 4) and the number of adherent or rolling lymphocytes (FIG. 4) within 24 hours post-infection, compared to saline treated controls.
Methods: To test the hypothesis that intranasal infection may increase BBB permeability, we exposed mice to GAS via intranasal infection with Streptococcus pyogenes (GAS). We assessed BBB permeability using intravital microscopy, and we characterized the immune response to GAS using flow cytometric analysis of nasal associated lymphoid tissue (NALT), spleen, and brain.
Intranasal infection: Isoflurane gas was employed to briefly anesthetize mice (1-2 minutes). Once anesthetized, 7.5 uL of streptococcal bacterial suspension (OD600=0.5-0.6) was placed on each nares (outer nostril) of mouse. Control mice received intranasal inoculation with vehicle (PBS). The droplets were inhaled into nasal sinuses. This small volume avoids inoculation of the lungs, but reproducibly results in colonization of nasal-associated lymphoid tissue (NALT, Park 2003; Wang 2010).
Intraperitoneal injection: The TLR 1/2 agonist, Pam-3-Cys (25 ug/mouse; Pam3CSK4, InvivoGen, San Diego Calif.) was intraperitoneally (right side) injected into mice 24 hours before intravital microscopy. P3C causes immune cell activation and polycolonal expansion of B-lymphocytes by Toll-Like receptor ligation (Newell 2010). Control mice received equal volume of vehicle (PBS) intraperitoneally.
MHC class II-targeted proprietary peptide (TPP, Elim Biopharmaceuticals Inc., Hayward Calif.; also see Newell 2010) was administered intraperitoneally (5 ug/mouse, left side), sometimes in conjunction with P3C (right side). TPP was dissolved in DMSO for a final concentration of 2.5% DMSO in PBS. Control mice received vehicle (2.5% DMSO in PBS) intraperitoneally.
Preparation of Mice: Mice were anesthetized with an (i.p.) injection of 50% urethane (Sigma-Aldrich, U2500) in PBS ([…]) and maintained on heating pad. Anesthetic plane was assessed throughout preparation and experiments, by response to toe pinch. If needed, urethane supplement was given at 10% of original dose volume. To prepare mice tails for intravenous (i.v.) dye injection we maintained anesthetized mice on a heating pad for 10-15 minutes, and then briskly wiped tails (toward tail-end) with 70% ethanol wipes to remove scales/hair and increase vasodilation. Immediately following tail wiping, Fluorescein dextran 10 kDa (10 mg/mL, Sigma-Aldrich, FD10S) was administered (2 uL/g mouse) via right lateral tail vein and, Rhodamine 6G (0.2 mg/mL, Sigma-Aldrich, 83697) was administered (1.6 uL/g mouse) via left lateral tail vein. When needed, tail was wiped multiple times to ensure clear visualization of tail veins. Following successful (i.v.) injection of dyes, mice underwent craniotomy.
Craniotomy: A craniotomy (removal of a small area of skull) was performed to expose the cerebrum and allow imaging of cerebral microvasculature (specifically pial vessels of pia mater). First, an incision across the midline of the scalp was made to expose the right parietal bone. The skull was then carefully marked with a waterproof marker, designating the area, 1 mm posterior from the Bregma and 4 mm lateral from the midline, to be removed (craniotomy diameter: 2.5 mm). Next, the craniotomy was performed with a drill ensuring the dura mater was not cut. […]

Series [2] is described as follows: Toxicity evaluation in CFA/Peptide/MLA study (survival, body weight change, spleen weight). The class given is in vivo, mice. As to the method: SUMMARY: A study was conducted to evaluate a potential alpha7 nAChR anti-inflammatory mechanism of the MKR-4 peptide, using the alpha7 nAChR antagonist methyllycaconitine (MLA). After enrollment, animals in Groups 2-4 were sensitized ID at the base of the tail with 0.1 mL FCA on Day 1. On Days 2, 3, 5 & 7 Groups were then dosed intraperitoneally (IP) with either: peptide and MLA in combination (2 mg/kg and 6 mg/kg, respectively); peptide (2 mg/kg) and MLA vehicle (saline) in combination; or peptide vehicle (saline) and MLA vehicle (saline). Animals were dosed once on Study Day 2 (MLA or MLA vehicle), and Days 3, 5 & 7 (Peptide or Peptide vehicle, MLA or MLA vehicle) as described in Table 2 below. Body weights were recorded on Study Days 0 & 8. Mice were euthanized for necropsy on Study Day 8, and serum and whole spleens were collected from all animals and sent to the sponsor for internal FACS analysis. Toxicity and Peptide mechanistic evaluation was based on absolute body weight change, spleen weights and sponsor FACS analysis (not included in report). […]
Statistical Analysis: Data for each animal were entered into Microsoft Excel and means and standard errors for each group were calculated. Test groups were compared to vehicle controls using a one-way analysis of variance (1-way ANOVA) with a Dunnett's post-hoc analysis for measured (parametric) data. […]

Series [3] can be described thus: LPS model of sepsis, autoregulation of arterial pressure / afferent arteriolar autoregulatory behavior. Format: in vivo. The following applies: LPS treated rats, CAP treatment. The protocol: FIGS. 16A-16B. Treatment with CAP restores afferent arteriolar autoregulatory behavior in chronic LPS (0.1 mg/kg/day) treated kidneys. Each data point represents the mean±SE. * P<0.05 vs. control diameter in the same group. ‡ P<0.05 vs. control for the same perfusion pressure. # P<0.05 vs. CAP for the same perfusion pressure.
Sepsis is a potentially life-threatening condition, is caused by excessive inflammation resulting from the body trying to fend off infection. […] LPS treatment (0.84 mg/kg) of rats is used as a model of sepsis and results in loss of arterial pressure that is inflammatory and mimics loss of autoregulation in sepsis. We discovered that autoregulation of arterial pressure can be restored with CAP treatment (FIG. 16), further supporting its use to treat infectious disease associated with sepsis.

[4] abbreviates: TPP 5 ug/mouse i.p., 24 hours, listed as TPP.

On to FRIMAVLAS [CAP, α7nAChR agonist], for which the P3C-induced lymphocyte rolling entry in series [1] (TPP 5 ug/mouse i.p. with P3C, 24 hours) was “reduced”. Moreover, in series [1] (TPP 5 ug/mouse i.p. with P3C, 24 hours, listed as TPP), the P3C-induced lymphocyte adhering result is listed as “reduced; also recorded: significantly reversed”. In series [1] (setting [4]), the “streptococcal infection-induced lymphocyte adhering” value is reported as “significantly reversed” and the “streptococcal infection-induced lymphocyte rolling” value was “reversed; also recorded: reduced”. In series [1] (TPP in infected or P3C treated mice), the “size of adherent cells” value is given as “did not attenuate”. The “survival to study termination” value in series [2] (Peptide 2 mg/kg IP Days 3, 5, 7, with or without MLA) is reported as “All mice survived”. Moreover, the “group body weight change differences and spleen weight differences” value in series [2] (Peptide 2 mg/kg IP, with or without MLA 6 mg/kg, CFA mice) is “none of the group body weight change differences or spleen weight differences were significant”. Moreover, the “autoregulation of arterial pressure (afferent arteriolar autoregulatory behavior)” value in series [3] is reported as “restores”.
